In publication PMC6277767, “Broad and Region-Specific Impacts of the Synthetic Cannabinoid CP 55,940 in Adolescent and Adult Female Mouse Brains” (Frontiers in Molecular Neuroscience, 2018):

Tested on: CD1 female mouse brain lipidome
Test: Brain-region lipid levels (HPLC/MS/MS lipidomics) 2 h after single i.p. 3 mg/kg CP 55,940 vs vehicle
Format: in vivo
Design: N-arachidonoyl phenylalanine level, Mean / N-stearoyl tryptophan level, Mean / N-stearoyl proline level, Mean / N-stearoyl leucine level, Mean / N-stearoyl phenylalanine level, Mean / N-stearoyl serine level, Mean / N-stearoyl methionine level, Mean: unit: moles per gram
Description: The Bloomington Institutional Animal Care and Use Committee of Indiana University reviewed and approved the animal procedures. Female mice from the CD1 strain were utilized to match our study examining THC’s effects on the brain lipidome ([Leishman et al., 2018]). Mice were given a single i.p. injection of either 3 mg/kg CP or 1:1:18 cremophor:ethanol:saline vehicle (please refer to the section “3 mg/kg CP Is Relevant for Synthetic Cannabinoid Abuse and Has Stronger Effects on the Female Mouse Brain Lipidome During Adolescence” for a justification of dose and use of female mice). Three different age groups were given injections: PND 35 and PND 50 adolescents, and adult mice (PND 113). At least eight mice in each age group received CP and at least eight received vehicle. Matching the THC study time course ([Leishman et al., 2018]), mice were sacrificed via rapid decapitation 2 h after injection. Brains were immediately removed and flash-frozen in liquid nitrogen, and then stored at -80°C until dissections were performed. Brains were dissected on an ice-cold dissection plate into the following regions: STR, HIPP, CER, THAL, CTX, HYP, MID, and STEM. These abbreviations for these brain areas will be used exclusively when discussing the results generated by these specific dissections. Each dissected area was immediately placed in liquid nitrogen and then stored at -80°C until used for lipid extraction.
Tissue extracts were performed as previously described ([Bradshaw et al., 2006]; [Stuart et al., 2013]; [Raboune et al., 2014]; [Leishman et al., 2016a],[b], [2017], [2018]). First, samples were shock frozen in liquid nitrogen, weighed, and transferred to a centrifuge tube. The mass of the largest sample was multiplied by 50 to determine how many milliliters of HPLC-grade methanol (Fisher, Fair Lawn, NJ, United States) to add. Then, samples were spiked with 500 pmol deuterium-labeled NAGly (d8NAGly; Cayman Chemical, Ann Arbor, MI, United States). Samples were placed on ice in darkness for 2 h then individually homogenized and centrifuged at 19,000 × g for 20 min at 20°C. Supernatants were diluted with HPLC water (purified in house) to make a solution of 75% water, 25% supernatant. Lipids were partially purified on C18 solid phase extraction columns (Agilent, Palo Alto, CA, United States). A series of four elutions with 1.5 mL of 60%, 75%, 85%, and 100% methanol were collected ([Stuart et al., 2013]; [Leishman et al., 2016a],[b], [2018]).
As previously described ([Bradshaw et al., 2006]; [Tan et al., 2006]; [Smoum et al., 2010]; [Stuart et al., 2013]; [Tortoriello et al., 2013]; [Raboune et al., 2014]; [Leishman et al., 2016a],[b], [2017], [2018]), samples were analyzed using an Applied Biosystems API 3000 triple quadrupole mass spectrometer with electrospray ionization (Foster City, CA, United States). Using an Agilent XDB-C18 reversed phase analytical column and optimized mobile phase gradients, 20 μL from each elution were chromatographed. Two Shimadzu 10ADvp pumps (Columbia, MD, United States) provided the pressure for gradient elution. Mobile phase A: 20% methanol, 80% water (v/v) and 1 mM ammonium acetate (Sigma, St. Louis, MO, United States). Mobile phase B: 100% methanol, 1 mM ammonium acetate. Every method run began with 0% mobile phase B, reached 100% mobile phase B flowing at 0.2 mL/min, and gradually returned to 0% mobile phase B.
This screening library will be referred to as the lipidome when discussing data from this study. HPLC/MS/MS data were analyzed using Analyst software (Applied Biosystems) ([Bradshaw et al., 2006]; [Tan et al., 2006]; [Stuart et al., 2013]; [Tortoriello et al., 2013]; [Raboune et al., 2014]; [Leishman et al., 2016a],[b], [2017], [2018]). Chromatograms (Supplementary Figure 3) were generated by determining the retention time of analytes from the analytical column with a [M-1] or [M+1] parent peak and a fragmentation peak corresponding to the programmed values. […]

[1] = adult female mice, brainstem, 3mg/kg CP 55,940
[2] = adult hypothalamus, 3 mg/kg CP 55,940

## CCCCCCC(C)(C)c1ccc([C@@H]2C[C@H](O)CC[C@H]2CCCO)c(O)c1 [CP 55,940]
[1]
  6-ketoPGF1α level, Mean: 2.07E-11
  Arachidonic acid level, Mean: 4.08E-10
  Linoleic acid level, Mean: 4.56E-10
  N- stearoyl valine level, Mean: 2.21E-14
  N-arachidonoyl proline level, Mean: BDL
  N-arachidonoyl serine level, Mean: PISSR
  N-arachidonoyl taurine level, Mean: 2.62E-11
  N-arachidonoyl tryptophan level, Mean: BDL
  N-arachidonoyl tyrosine level, Mean: 6.33E-13
  N-docosahexaenoyl proline level, Mean: BDL
  N-docosahexaenoyl serine level, Mean: PISSR
  N-docosahexaenoyl tryptophan level, Mean: BDL
  N-docosahexaenoyl tyrosine level, Mean: 5.03E-13
  N-docosahexaenoyl valine level, Mean: BDL
  N-linoleoyl proline level, Mean: BDL
  N-linoleoyl serine level, Mean: 1.98E-11
  N-linoleoyl tryptophan level, Mean: BDL
  N-linoleoyl tyrosine level, Mean: PISSR
  N-linoleoyl valine level, Mean: PISSR
  N-nervonoyl valine level, Mean: BDL
  N-oleoyl proline level, Mean: BDL
  N-oleoyl serine level, Mean: 1.03E-10
  N-oleoyl tryptophan level, Mean: BDL
  N-oleoyl tyrosine level, Mean: 5.06E-13
  N-oleoyl valine level, Mean: 1.48E-14
  N-palmitoyl proline level, Mean: BDL
  N-palmitoyl serine level, Mean: 1.08E-11
  N-palmitoyl tryptophan level, Mean: BDL
  N-palmitoyl tyrosine level, Mean: 7.4E-13
  N-palmitoyl valine level, Mean: 1.28E-13
  N-stearoyl proline level, Mean: BDL
  N-stearoyl serine level, Mean: 1.31E-11
  N-stearoyl tryptophan level, Mean: BDL
  Oleic acid level, Mean: 4.28E-10
  PGE2 level, Mean: 1.64E-10
  PhosphoLEA level, Mean: 2.15E-12
[2]
  2-arachidonoyl glycerol level, Mean: 2.11E-09
  2-linoleoyl glycerol level, Mean: 1.7E-10
  2-oleoyl glycerol level, Mean: 1.71E-09
  2-palmitoyl glycerol level, Mean: 1.78E-10
  6-ketoPGF1α level, Mean: 2.15E-11
  11-OH-THC level, Mean: BDL
  11-nor-9-carboxyTHC level, Mean: BDL
  Arachidonic acid level, Mean: 6.14E-10
  Cannabidiol level, Mean: BDL
  Linoleic acid level, Mean: 1.2E-10
  N-arachidonoyl GABA level, Mean: 2.05E-11
  N-arachidonoyl dopamine level, Mean: BDL
  N-arachidonoyl ethanolamine level, Mean: 6.61E-12
  N-arachidonoyl glycine level, Mean: 2.96E-13
  N-arachidonoyl methionine level, Mean: BDL
  N-arachidonoyl phenylalanine level, Mean: 1.34E-13
  N-arachidonoyl proline level, Mean: BDL
  N-arachidonoyl serine level, Mean: BDL
  N-arachidonoyl taurine level, Mean: 1.91E-11
  N-arachidonoyl tryptophan level, Mean: BDL
  N-docosahexaenoyl ethanolamine level, Mean: 1.18E-11
  N-docosahexaenoyl methionine level, Mean: BDL
  N-docosahexaenoyl proline level, Mean: BDL
  N-docosahexaenoyl tryptophan level, Mean: BDL
  N-docosahexaenoyl valine level, Mean: BDL
  N-linoleoyl GABA level, Mean: BDL
  N-linoleoyl ethanolamine level, Mean: 6.58E-12
  N-linoleoyl methionine level, Mean: BDL
  N-linoleoyl proline level, Mean: BDL
  N-linoleoyl serine level, Mean: 1.16E-10
  N-linoleoyl tryptophan level, Mean: BDL
  N-linoleoyl tyrosine level, Mean: BDL
  N-linoleoyl valine level, Mean: BDL
  N-nervonoyl valine level, Mean: BDL
  N-oleoyl alanine level, Mean: 4.79E-12
  N-oleoyl dopamine level, Mean: BDL
  N-oleoyl ethanolamine level, Mean: 7.29E-11
  N-oleoyl glycine level, Mean: 2.66E-13
  N-oleoyl methionine level, Mean: BDL
  N-oleoyl phenylalanine level, Mean: 5E-13
  N-oleoyl proline level, Mean: BDL
  N-oleoyl serine level, Mean: 5.82E-10
  N-oleoyl tryptophan level, Mean: BDL
  N-palmitoyl GABA level, Mean: 3.12E-11
  N-palmitoyl alanine level, Mean: 2.7E-12
  N-palmitoyl ethanolamine level, Mean: 2.56E-11
  N-palmitoyl glycine level, Mean: 2.34E-12
  N-palmitoyl leucine level, Mean: 1.88E-12
  N-palmitoyl methionine level, Mean: BDL
  N-palmitoyl phenylalanine level, Mean: 3.42E-13
  N-palmitoyl proline level, Mean: BDL
  N-palmitoyl tryptophan level, Mean: BDL
  N-palmitoyl tyrosine level, Mean: 1.11E-12
  N-palmitoyl valine level, Mean: 1.56E-13
  N-stearoyl alanine level, Mean: 2.77E-12
  N-stearoyl ethanolamine level, Mean: 7.07E-12
  N-stearoyl glycine level, Mean: 2.2E-12
  N-stearoyl leucine level, Mean: 1.65E-12
  N-stearoyl methionine level, Mean: BDL
  N-stearoyl phenylalanine level, Mean: 2.86E-13
  N-stearoyl proline level, Mean: BDL
  N-stearoyl serine level, Mean: 4.88E-11
  N-stearoyl tryptophan level, Mean: BDL
  Oleic acid level, Mean: 2.14E-10
  PGE2 level, Mean: 2.25E-10
  PhosphoLEA level, Mean: 5.73E-11
